# Measured values reported in patent US7419667B2, “Drug for cancer therapy” (Morinaga Milk Industry Co. Ltd., priority 2004, dated 2008).
# System: human Burkitt lymphoma Raji cells
# Assay: Test Example 5: effect on cytotoxic activity of rituximab and complement, PI flow cytometry (FIG. 1)
# Type: cell-based
# Conditions: rituximab + 10% human normal serum (AB type), sample 1.0 mg/ml final, 1 hour
# Text: The lactoferrin hydrolysate mixture prepared in Preparation Example 1 was used as Sample A, and the lactoferrin hydrolyzed peptide (lactoferrin partial peptide) prepared in Preparation Example 2 was used as Sample B. Moreover, as control samples, commercially available bovine lactoferrin (Morinaga Milk Industry Co., Ltd.) was used as Control A, and protamine sulfate was used as Control B.
# Raji cells in the logarithmic growth phase were used as target cells. Raji cells collected by centrifugation of a cell suspension were suspended in fresh culture broth (RPMI 1640, 10% FCS), counted and then added to a 24-well plate in an amount of 1.0×10^5 cells/well. To each well, rituximab ([…]) and 1.0 mg/ml as a final concentration of Sample A, Sample B, Control A or Control B (or Medium [culture broth] instead of the sample) were added, and then human normal serum (AB type) was added at a final concentration of 10%. Then, the cells were cultured in a CO2 incubator for 1 hour, and PI (propidium iodide, 1 mg/ml) was added during the last 15 minutes of the culture. […] The Raji cells that died during the culture were counted by analyzing the suspension with a flow cytometer (FACScan) utilizing the fact that dead cells are positive in the nuclear staining with PI.
# In this test, the cytotoxic activity was calculated in accordance with the following equation. […]
substance,measurement,value
protamine sulfate [Control B],cytotoxic activity [number of dead cells (%)] relative to Medium (culture broth),such increase of the activity was not observed
